Tested on: Daudi-Cas9 cells
Assay: Cancer-T cell co-culture genome-wide CRISPR knockout screen (Vγ9Vδ2 T cell killing)
Assay type: cell-based, human
Conditions: for score: MAGeCK sgRNA test, co-culture screen; for LFC: log-fold change of sgRNA, surviving cells after co-culture vs baseline; for LFC / treat mean: MAGeCK; for treat mean: sgRNA abundance in surviving Daudi-Cas9 KO cells after 24 hours Vγ9Vδ2 T cell co-culture with zoledronate; for high_in_treatment: sgRNA enriched (TRUE) or depleted (FALSE) after T cell co-culture

Substance | score | LFC | treat mean | high_in_treatment
IRF1_CACCTCCTCGATATCTGGC: library sgRNA targeting IRF1 (as printed in the source, key not given here) | 8.8869 | 1.2122 | 7029.4 | TRUE
SPIB_CCTCGTGGCTGGCCCCGAG: library sgRNA targeting SPIB (as printed in the source, key not given here) | 7.9175 | 1.2165 | 5523.4 | TRUE
MRPS26_CCCCCGGCCGCACACCTGA: library sgRNA targeting MRPS26 (as printed in the source, key not given here) | 7.3571 | −3.3597 | 431.96 | FALSE
MRPL9_CTCCACGATGACCGTGCCC: library sgRNA targeting MRPL9 (as printed in the source, key not given here) | 6.5755 | −4.3743 | 152.42 | FALSE
EEFSEC_TCACGCTGGTCGACTGCCC: library sgRNA targeting EEFSEC (listed as DNA, chemistry not fully specified) | 6.5622 | −8.5255 | 6.8247 | FALSE
BTN2A1_ATGAGGGGCCATGAAGACG: library sgRNA targeting BTN2A1 (listed as DNA, chemistry not fully specified) | 7.3174 | 2.3876 | 1007.3 | TRUE
AARS2_ATCCGCCTACCCCGCTCCA: library sgRNA targeting AARS2 (listed as DNA, chemistry not fully specified) | 6.7194 | −4.9928 | 99.765 | FALSE
NUP37_GCCAGCACACACTCATGCC: library sgRNA targeting NUP37 (listed as DNA, chemistry not fully specified) | 5.9656 | −1.9711 | 1092.8 | FALSE
SPIB_GAGGTCTCGGACAGCGAGT: library sgRNA targeting SPIB (as printed in the source, key not given here) | 7.1579 | 1.2994 | 3907.1 | TRUE
RPP21_GCACTCACGTCTCTGGCGC: library sgRNA targeting RPP21 (as printed in the source, key not given here) | 6.2576 | −7.9412 | 9.6859 | FALSE
MTG2_ATGAGTACATTGCCGCGCT: library sgRNA targeting MTG2 (listed as DNA, chemistry not fully specified) | 6.5262 | −4.2612 | 163.79 | FALSE
ACAT2_CAGTCCAGTCAATAGGGAT: library sgRNA targeting ACAT2 (listed as DNA, chemistry not fully specified) | 12.759 | 2.0827 | 4335.4 | TRUE
ALCAM_GTGTGCATGCTAGTAACTG: library sgRNA targeting ALCAM (listed as DNA, chemistry not fully specified) | 6.8519 | 1.5404 | 2462.2 | TRUE
HISTIH3J_CACGCAAGGCCACGGTGCC: library sgRNA targeting HIST-1H3J (listed as DNA, chemistry not fully specified) | 6.0349 | 1.0769 | 4138.5 | TRUE
ACAT2_CAAGTGAGTAGAGAAGATC: library sgRNA targeting ACAT2 (listed as DNA, chemistry not fully specified) | 6.1049 | 1.9893 | 1085.8 | TRUE
SCO1_CACCCCCGTGGTCGCAGAA: library sgRNA targeting SCO1 (listed as DNA, chemistry not fully specified) | 10.413 | −3.6001 | 714.32 | FALSE
PRMT1_TGGTGCTGGACGTCGGCTC: library sgRNA targeting PRMT1 (listed as DNA, chemistry not fully specified) | 6.7595 | −8.6196 | 6.7801 | FALSE
ALG12_TGCGATCACCACTGGCCCG: library sgRNA targeting ALG12 (listed as DNA, chemistry not fully specified) | 6.0622 | −3.0699 | 374.84 | FALSE

Substance | score | LFC | treat mean | high_in_treatment
GMPPB_GCCGTGAGCTACATGTCGC: library sgRNA targeting GMPPB (listed as DNA, chemistry not fully specified) | 6.4797 | −2.6559 | 627.87 | FALSE
DNLZ_CAGCTCGTCTACACCTGCA: library sgRNA targeting DNLZ (as printed in the source, key not given here) | 6.2683 | −8.2244 | 6.7801 | FALSE
TSC2_AGCATCTCATACACACGCG: library sgRNA targeting TSC2 (listed as DNA, chemistry not fully specified) | 6.0284 | −2.8218 | 463.96 | FALSE
BTN3A2_ACGTCACAGCCTCTGACAG: library sgRNA targeting BTN3A2 (listed as DNA, chemistry not fully specified) | 17.862 | 2.2137 | 7396.6 | TRUE
SPIB_GGGGGGTTCGTAGCAGAGC: library sgRNA targeting SPIB (as printed in the source, key not given here) | 6.2733 | 1.2452 | 3280.6 | TRUE
PSMG4_CACCTGCGCAACCTCGCCG: library sgRNA targeting PSMG4 (listed as DNA, chemistry not fully specified) | 6.1467 | −3.4412 | 279.92 | FALSE
SPIB_CGGGTCGAAGGCTTCATAG: library sgRNA targeting SPIB (as printed in the source, key not given here) | 6.9394 | 1.7479 | 1900.6 | TRUE
TTC7A_CAGTACGTCATGCTCTCGG: library sgRNA targeting TTC7A (listed as DNA, chemistry not fully specified) | 6.0307 | −5.2629 | 63.697 | FALSE
WDR59_TATCCGCACATCGCCGTCA: library sgRNA targeting WDR59 (as printed in the source, key not given here) | 7.8204 | −3.8469 | 327.58 | FALSE
MRPL28_TTCCCCCCGAATCCCAGCG: library sgRNA targeting MRPL28 (as printed in the source, key not given here) | 7.2159 | −3.2156 | 469.77 | FALSE
PHB_GACCGATTCCGTGGAGTGC: library sgRNA targeting PHB (as printed in the source, key not given here) | 6.0021 | −3.7742 | 202.44 | FALSE
BTN3A1_AGGGAACTTCTGATGGTAC: library sgRNA targeting BTN3A1 (listed as DNA, chemistry not fully specified) | 8.7326 | 1.7308 | 3095 | TRUE
NUDCD3_TCACCACGTGCTTGGGTAC: library sgRNA targeting NUDCD3 (listed as DNA, chemistry not fully specified) | 6.5243 | −3.6651 | 262.75 | FALSE
BTN2A1_AGCCCCTCATTTCAATGAG: library sgRNA targeting BTN2A1 (listed as DNA, chemistry not fully specified) | 7.0382 | 1.7442 | 1965.3 | TRUE
SPIB_CTGGGGCTACTGACGCGCG: library sgRNA targeting SPIB (as printed in the source, key not given here) | 12.692 | 1.6241 | 7610.7 | TRUE
RAB7A_CGGTTCCAGTCTCTCGGTG: library sgRNA targeting RAB7A (listed as DNA, chemistry not fully specified) | 6.2219 | −4.046 | 175.17 | FALSE
IRF1_AGCCGAGATGCTAAGAGCA: library sgRNA targeting IRF1 (as printed in the source, key not given here) | 8.1693 | 1.6173 | 3151.9 | TRUE
IRF1_GGAAGCATGCTGCCAAGCA: library sgRNA targeting IRF1 (as printed in the source, key not given here) | 8.5638 | 1.6107 | 3499.5 | TRUE
